# Laboratory results: patent US10941115B2, “Kinase inhibitors” (Oxular Acquisitions Limited, priority 2014, dated 2021)
# Counter-ions that a name gives are not always drawn. Like-named read-outs stand apart in the source and are kept apart here.
# Key:
# [1] = Stability of pharmaceutical formulations (1 mg/mL solutions); type: physicochemical; conditions: for Purity (%) at week n = 4: week 4; for Purity (%) at week n = 1: week 1
# Method: The samples were sonicated to achieve clear solutions having the following properties: Osmolality (mOsm/kg): 310 (Na), 314 (HCl); pH: 7.00 (Na), 7.05 (HCl). 0.5 mL of the stock solutions were diluted to 1 mL with 20% DMSO in water & injected for purity analysis by HPLC. The remaining stock solutions were then split into aliquots of 0.5 mL in HPLC vials, and stored at various conditions in duplicate. Samples were stored at 5 and 25° C., before being analysed by HPLC at 1, 2 and 4 weeks. Separate samples were stored at 40° C. and analysed at 4 weeks.
# [2] = 0.1 and 1.0 mg/mL, four daily ocular instillations, rabbits
# [3] = tested on: LPS-stimulated rats; assay: Endotoxin-induced uveitis in rats (assay vi); type: in vivo, Lewis rats; conditions: rats treated with intravitreal LPS, result in words
# Method: Male, Lewis rats (6-8 weeks old, Charles River UK Limited) are housed in cages of 3 at 19-21° C. with a 12 h light/dark cycle (07:00/19:00) and fed a standard diet of rodent chow and water ad libitum. Non-fasted rats are weighed, individually identified on the tail with a permanent marker, and receive a single intravitreal administration into the right vitreous humor (5 μL dose volume) of 100 ng/animal of LPS (Escherichia coli 0111:B4 prepared in PBS, Sigma Aldrich, UK) using a 32-gauge needle. Untreated rats are injected with PBS. Test compound or vehicle (4% polyoxyl 40 stearate, 4% mannitol in PBS (pH 7.4)) are administered by the topical route onto the right eye (10 μL) of animals 1 hour prior to LPS, at the time of LPS administration, and 1, 2 and 4 hours post LPS administration. Before administration, the solution to be administered is sonicated to ensure a clear solution. 6 hours after LPS dosing, animals are euthanized by overdose with pentobarbitone (via cardiac puncture). Immediately after euthanasia, 10 μL of aqueous humor is collected from the right eye of the rats by puncture of the anterior chamber using a 32 gauge needle under a surgical microscope. The aqueous humor is diluted in 20 μL of PBS and total cell counts are measured immediately using a Countess automated cell counter (Invitrogen). […]
# [4] = tested on: Escherichia coli WP2 uvrA; assay: Bacterial reverse mutation screen (plate incorporation, ±S-9); conditions: for mutagenic effects (revertant numbers): presence and absence of S-9 mix
# [5] = tested on: Salmonella typhimurium strains TA1535, TA1537, TA98 and TA100; assay: as above; conditions: for mutagenic effects (revertant numbers): TA1535, TA1537, TA98, TA100, presence and absence of S-9 mix; for toxicity to the bacteria (mean colony count): at the highest doses (500-5000 μg/plate), some strains
# [6] = Hydrolytic stability study in DMSO/water (3:1) at 60 °C; type: physicochemical; conditions: DMSO/water 3:1, 1 mg/mL, result in words
# Method: Flow rate 2.5 mL/min. Column Oven Temperature 40° C. […] The peak area for the test compound was recorded following manual integration of the corresponding UV trace. • The test solution was heated to 60° C., with stirring, and 50 μL aliquots removed for HPLC analysis at 5 and 24 h timepoints.
# [7] = tested on: non-mutant kinases; type: binding; conditions: for KinomeScan Selectivity Score S(1): fraction of non-mutant kinases with % Ctrl <1; for KinomeScan Selectivity Score S(10): fraction of non-mutant kinases with % Ctrl <10
# Text: These assays may be conducted by DiscoverX (formerly Ambit; San Diego, Calif.).
compound,measurement,setting,value
"COc1cc(Nc2cc(Oc3ccc(NC(=O)Nc4cc(C(C)(C)C)cc(NS(C)(=O)=O)c4OC)c4ccccc34)ccn2)ccc1C(=O)O [Example 1, sodium salt]",Purity (%) at week n = 4,"[1]; 1 mg/mL solution, Sample 1, 40° C.",76.0%
"COc1cc(Nc2cc(Oc3ccc(NC(=O)Nc4cc(C(C)(C)C)cc(NS(C)(=O)=O)c4OC)c4ccccc34)ccn2)ccc1C(=O)O [Example 1, 4-((4-((4-(3-(5-(tert-Butyl)-2-methoxy-3-(methylsulfonamido)phenyl)ureido)naphthalen-1-yl)oxy)pyridin-2-yl)amino)-2-methoxybenzoic acid]",local tolerability of the formulations,[2]; Phase 1: one treatment day,acceptable after a single dosing day
same,ocular reactions compared with vehicle controls,[2]; Phase 1: one treatment day,"no differences in the frequency, severity and incidence between the Example 1-treated animals and the vehicle controls"
same,local tolerability of the formulations,[2]; Phase 2: three consecutive treatment days,acceptable without any aggravation for the 3 treatment days
same,cellular infiltration (cell counts) in the eyes,[3],significantly and dose-dependently reduced cellular infiltration
same,cytokine IL-1β levels in anterior and posterior segments of the eyes,[3],significantly and dose-dependently reduced
same,mutagenic effects (revertant numbers),[4],absence of any mutagenic effects
same,stability in solution,"[1]; 1 mg/mL Na and HCl salts in pH 7.2 phosphate buffer, 4.5% mannitol, 3% polyoxyl 40 stearate",stable in solution at 5 °C
same,mutagenic effects (revertant numbers),[5],absence of any mutagenic effects
same,toxicity to the bacteria (mean colony count),[5],reduction in the mean colony count
"COc1cc(Nc2cc(Oc3ccc(NC(=O)Nc4cc(C(C)(C)C)cc(NS(C)(=O)=O)c4OC)c4ccccc34)ccn2)ccc1P(C)(=O)O [Example 44, (4-((4-((4-(3-(5-(tert-Butyl)-2-methoxy-3-(methylsulfonamido)phenyl)ureido)naphthalen-1-yl)oxy)pyridin-2-yl)amino)-2-methoxyphenyl)(methyl)phosphinic acid]",toxicity to the bacteria (mean colony count),"[4]; 5000 μg/plate, absence of S-9 mix",reduction in the mean colony count
same,mutagenic effects (revertant numbers),[4],absence of any mutagenic effects
same,mutagenic effects (revertant numbers),[5],absence of any mutagenic effects
same,toxicity to the bacteria (mean colony count),[5],reduction in the mean colony count
"C#Cc1cc(Nc2nccc(Oc3ccc(NC(=O)Nc4cc(C(C)C)nn4-c4ccc(C)cc4)c4ccccc34)n2)cc(C(=O)NCCN2CCOCC2)c1 [Reference Compound B, 3-ethynyl-5-((4-((4-(3-(3-isopropyl-1-(p-tolyl)-1H-pyrazol-5-yl)ureido)naphthalen-1-yl)oxy)pyrimidin-2-yl)amino)-N-(2-morpholinoethyl)benzamide]",decomposition under the conditions of the hydrolytic stability study,[6],underwent substantial decomposition
"COc1cc(Nc2cc(Oc3ccc(NC(=O)Nc4cc(C(C)(C)C)cc(NS(C)(=O)=O)c4OC)c4ccccc34)ccn2)ccc1C(=O)O.Cl [Example 1, hydrochloride salt]",Purity (%) at week n = 1,"[1]; 1 mg/mL solution, Sample 1, 25° C.",98.0%
same,Purity (%) at week n = 2,"[1]; 1 mg/mL solution, Sample 2, 5° C., week 2",98.0%
same,Purity (%) at week n = 4,"[1]; 1 mg/mL solution, Sample 2, 5° C.",98.0%
same,Purity (%) at week n = 1,"[1]; 1 mg/mL solution, Sample 2, 25° C.",98.0%
"COc1cc(Nc2cc(Oc3ccc(NC(=O)Nc4cc(C(C)(C)C)cc(NS(C)(=O)=O)c4OC)c4ccccc34)ccn2)cc(OC)c1C(=O)NCCOCCOCCO [Example 36, 4-((4-((4-(3-(5-(tert-butyl)-2-methoxy-3-(methylsulfonamido)phenyl)ureido)naphthalen-1-yl)oxy)pyridin-2-yl)amino)-N-(2-(2-(2-hydroxyethoxy)ethoxy)ethyl)-2,6-dimethoxybenzamide]",KinomeScan Selectivity Score S(1),[7]; 50 nM,0.002
same,KinomeScan Selectivity Score S(10),[7]; 50 nM,0.050
same,KinomeScan Selectivity Score S(1),[7]; 500 nM,0.079
"COc1cc(Nc2cc(Oc3ccc(NC(=O)Nc4cc(C(C)(C)C)cc(NS(C)(=O)=O)c4OC)c4ccccc34)ccn2)cc(OC)c1C(=O)NCCOCCOCCOP(=O)(O)O [Example 47, 2-(2-(2-(4-((4-((4-(3-(5-(tert-butyl)-2-methoxy-3-(methylsulfonamido)phenyl)ureido)-naphthalen-1-yl)oxy)pyridin-2-yl)amino)-2,6-dimethoxybenzamido)ethoxy)ethoxy)ethyl dihydrogen phosphate]",KinomeScan Selectivity Score S(10),[7]; 50 nM,0.042
same,KinomeScan Selectivity Score S(1),[7]; 500 nM,0.074
